Molecular target: T1, Purified ERAP1 (37-941)-10His (ERAP1) (Homo sapiens, UniProt Q9NZ08)
T1 construct: Purified ERAP1 (37-941)-10His (ERAP1)
Assay: ERAP1 mediated hydrolysis of an amide substrate (10-mer inhibition assay), biochemical system
Details: 10-mer substrate, 23° C., 1 h, excitation 279 nm / emission 355 nm; read-out: IC50 vs Decapeptide WRVYEKC(Dnp)ALK-acid (where Dnp is Dinitrophenyl maleimide) (10-mer)

T1 sequence (Q9NZ08 37-941): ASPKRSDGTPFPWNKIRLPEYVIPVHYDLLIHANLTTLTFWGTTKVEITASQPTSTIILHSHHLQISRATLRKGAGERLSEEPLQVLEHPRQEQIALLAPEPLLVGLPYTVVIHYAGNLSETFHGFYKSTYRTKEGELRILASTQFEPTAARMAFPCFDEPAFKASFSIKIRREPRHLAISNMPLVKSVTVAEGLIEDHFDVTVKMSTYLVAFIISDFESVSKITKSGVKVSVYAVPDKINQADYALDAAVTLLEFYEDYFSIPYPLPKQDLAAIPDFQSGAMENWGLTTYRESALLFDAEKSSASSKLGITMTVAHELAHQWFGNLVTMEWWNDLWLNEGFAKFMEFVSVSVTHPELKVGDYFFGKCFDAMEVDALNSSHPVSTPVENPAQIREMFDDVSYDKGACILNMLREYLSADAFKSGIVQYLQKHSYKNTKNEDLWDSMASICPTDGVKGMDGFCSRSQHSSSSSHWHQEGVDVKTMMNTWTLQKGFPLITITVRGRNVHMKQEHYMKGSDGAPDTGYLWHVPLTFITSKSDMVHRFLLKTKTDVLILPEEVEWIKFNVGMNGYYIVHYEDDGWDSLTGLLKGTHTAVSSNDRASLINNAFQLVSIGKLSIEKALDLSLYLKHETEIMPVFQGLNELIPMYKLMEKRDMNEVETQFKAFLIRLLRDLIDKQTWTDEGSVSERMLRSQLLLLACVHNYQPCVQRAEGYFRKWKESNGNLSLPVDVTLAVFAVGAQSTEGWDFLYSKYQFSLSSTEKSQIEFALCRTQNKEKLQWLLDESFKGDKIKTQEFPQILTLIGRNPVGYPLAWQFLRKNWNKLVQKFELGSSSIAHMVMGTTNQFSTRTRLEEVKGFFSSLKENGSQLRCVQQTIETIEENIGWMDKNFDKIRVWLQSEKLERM

CCc1ccc(C(=O)O)cc1S(=O)(=O)Nc1cc(Cl)ccc1N1CCC(F)(F)CC1 [Example 217, 3-(N-(5-chloro-2-(4,4-difluoropiperidin-1-yl)phenyl)sulfamoyl)-4-ethylbenzoic acid]
IC50: < 500 nM

COc1ccc(C(=O)O)cc1S(=O)(=O)Nc1cc(Cl)ccc1N1CCC(F)(F)CC1 [Example 218, 3-(N-(5-chloro-2-(4,4-difluoropiperidin-1-yl)phenyl)sulfamoyl)-4-methoxybenzoic acid]
IC50: < 500 nM

COc1ccc(C(=O)O)cc1S(=O)(=O)Nc1cc(Cl)ccc1N1CCCC(F)(F)C1 [Example 219, 3-(N-(5-chloro-2-(3,3-difluoropiperidin-1-yl)phenyl)sulfamoyl)-4-methoxybenzoic acid]
IC50: < 500 nM

CCc1ccc(C(=O)O)cc1S(=O)(=O)Nc1cc(Cl)ccc1N1CCCC(F)(F)C1 [Example 220, 3-(N-(5-chloro-2-(3,3-difluoropiperidin-1-yl)phenyl)sulfamoyl)-4-ethylbenzoic acid]
IC50: < 500 nM

COc1ccc(C(=O)O)cc1S(=O)(=O)Nc1cc(C#N)ccc1N1CCC(F)(F)CC1 [Example 221, 3-(N-(5-cyano-2-(4,4-difluoropiperidin-1-yl)phenyl)sulfamoyl)-4-methoxybenzoic acid]
IC50: < 500 nM

CCc1ccc(C(=O)O)cc1S(=O)(=O)Nc1cc(C#N)ccc1N1CCC(F)(F)CC1 [Example 222, 3-(N-(5-cyano-2-(4,4-difluoropiperidin-1-yl)phenyl)sulfamoyl)-4-ethylbenzoic acid]
IC50: < 500 nM

COc1ccc(C(=O)O)cc1S(=O)(=O)Nc1cc(C#N)ccc1N1CCCC(O)C1 (stereo not shown) [Example 223, 3-(N-(5-cyano-2-(3-hydroxypiperidin-1-yl)phenyl)sulfamoyl)-4-methoxybenzoic acid]
IC50: < 500 nM

CCc1ccc(C(=O)O)cc1S(=O)(=O)Nc1cc(C#N)ccc1N1CCCC(O)C1 (stereo not shown) [Example 224, 3-(N-(5-cyano-2-(3-hydroxypiperidin-1-yl)phenyl)sulfamoyl)-4-ethylbenzoic acid]
IC50: < 500 nM

CS(=O)(=O)c1ccc(C(=O)O)cc1S(=O)(=O)Nc1cc(C(F)(F)F)ccc1N1CCCCC1 [Example 225, 4-(methylsulfonyl)-3-(N-(2-(piperidin-1-yl)-5-(trifluoromethyl)phenyl)sulfamoyl)benzoic acid]
IC50: > 5000 nM

O=C(O)c1ccc(OCC(F)(F)F)c(S(=O)(=O)Nc2cc(C(F)(F)F)ccc2N2CCCCC2)c1 [Example 227, 3-(N-(2-(piperidin-1-yl)-5-(trifluoromethyl)phenyl)sulfamoyl)-4-(2,2,2-trifluoroethoxy)benzoic acid]
IC50: < 5000 nM

CC(C)(O)c1ccc(C(=O)O)cc1S(=O)(=O)Nc1cc(C(F)(F)F)ccc1N1CCCCC1 [Example 228, 4-(2-hydroxypropan-2-yl)-3-(N-(2-(piperidin-1-yl)-5-(trifluoromethyl)phenyl)sulfamoyl)benzoic acid]
IC50: < 500 nM

O=C(O)c1ccc(CO)c(S(=O)(=O)Nc2cc(C(F)(F)F)ccc2N2CCCCC2)c1 [Example 229, 4-(hydroxymethyl)-3-(N-(2-(piperidin-1-yl)-5-(trifluoromethyl)phenyl)sulfamoyl)benzoic acid]
IC50: < 500 nM

CCc1ccc(C(=O)O)cc1S(=O)(=O)Nc1ccc(C(F)(F)F)cc1N1CCCCC1 [Example 230, 4-ethyl-3-(N-(2-(piperidin-1-yl)-4-(trifluoromethyl)phenyl)sulfamoyl)benzoic acid]
IC50: < 500 nM

CSc1ccc(C(=O)O)cc1S(=O)(=O)Nc1cc(C(F)(F)F)ccc1N1CCCCC1 [Example 232, 4-(methylthio)-3-(N-(2-(piperidin-1-yl)-5-(trifluoromethyl)phenyl)sulfamoyl)benzoic acid]
IC50: < 500 nM

COc1ccc(C(=O)O)cc1S(=O)(=O)Nc1cc(C#N)ccc1N1CCCC(F)(F)C1 [Example 233, 3-(N-(5-cyano-2-(3,3-difluoropiperidin-1-yl)phenyl)sulfamoyl)-4-methoxybenzoic acid]
IC50: < 500 nM

CCc1ccc(C(=O)O)cc1S(=O)(=O)Nc1cc(C#N)ccc1N1CCCC(F)(F)C1 [Example 234, 3-(N-(5-cyano-2-(3,3-difluoropiperidin-1-yl)phenyl)sulfamoyl)-4-ethylbenzoic acid]
IC50: < 500 nM

COc1ccc(C(=O)O)cc1S(=O)(=O)Nc1cc(C(F)(F)F)ccc1N1CCCC[C@H]1C [Example 235, I-4-methoxy-3-(N-(2-(2-methylpiperidin-1-yl)-5-(trifluoromethyl)phenyl)sulfamoyl)benzoic acid]
IC50: < 500 nM

CCc1ccc(C(=O)O)cc1S(=O)(=O)Nc1cc(C(F)(F)F)ccc1N1CCCC[C@H]1C [Example 236, I-4-ethyl-3-(N-(2-(2-methylpiperidin-1-yl)-5-(trifluoromethyl)phenyl)sulfamoyl)benzoic acid]
IC50: < 500 nM

COc1ccc(C(=O)O)cc1S(=O)(=O)Nc1cc(C(F)(F)F)ccc1N1CCC(C#N)CC1 [Example 237, 3-(N-(2-(4-cyanopiperidin-1-yl)-5-(trifluoromethyl)phenyl)sulfamoyl)-4-methoxybenzoic acid]
IC50: < 500 nM

CCc1ccc(C(=O)O)cc1S(=O)(=O)Nc1cc(C(F)(F)F)ccc1N1CCC(C#N)CC1 [Example 238, 3-(N-(2-(4-cyanopiperidin-1-yl)-5-(trifluoromethyl)phenyl)sulfamoyl)-4-ethylbenzoic acid]
IC50: < 500 nM

COc1ccc(C(=O)O)cc1S(=O)(=O)Nc1cc(C(F)(F)F)ccc1N1CCCC[C@@H]1C [Example 239, (S)-4-methoxy-3-(N-(2-(2-methylpiperidin-1-yl)-5-(trifluoromethyl)phenyl)sulfamoyl)benzoic acid]
IC50: < 500 nM

CCc1ccc(C(=O)O)cc1S(=O)(=O)Nc1cc(C(F)(F)F)ccc1N1CCCC[C@@H]1C [Example 240, (S)-4-ethyl-3-(N-(2-(2-methylpiperidin-1-yl)-5-(trifluoromethyl)phenyl)sulfamoyl)benzoic acid]
IC50: < 500 nM

CCc1ccc(C(=O)O)cc1S(=O)(=O)Nc1cc(S(C)(=O)=O)ccc1N1CCCCC1 [Example 241, 4-ethyl-3-(N-(5-(methylsulfonyl)-2-(piperidin-1-yl)phenyl)sulfamoyl)benzoic acid]
IC50: < 500 nM

CCc1ccc(C(=O)O)cc1S(=O)(=O)Nc1cc(-n2cnnn2)ccc1N1CCCCC1 [Example 242, 4-ethyl-3-(N-(2-(piperidin-1-yl)-5-(tetrazol-1-yl)phenyl)sulfamoyl)benzoic acid]
IC50: < 500 nM

COc1ccc(C(=O)O)cc1S(=O)(=O)Nc1cc(C(F)(F)F)ccc1N1CCC[C@@H](O)C1 [Example 243, I-3-(N-(2-(3-hydroxypiperidin-1-yl)-5-(trifluoromethyl)phenyl)sulfamoyl)-4-methoxybenzoic acid]
IC50: < 500 nM

COc1ccc(C(=O)O)cc1S(=O)(=O)Nc1cc(C(F)(F)F)ccc1N1CCC[C@H](O)C1 [Example 244, (S)-3-(N-(2-(3-hydroxypiperidin-1-yl)-5-(trifluoromethyl)phenyl)sulfamoyl)-4-methoxybenzoic acid]
IC50: < 500 nM

COc1ccc(C(=O)O)cc1S(=O)(=O)Nc1cc(S(C)(=O)=O)ccc1N1CCC[C@@H](O)C1 [Example 245, I-3-(N-(2-(3-hydroxypiperidin-1-yl)-5-(methylsulfonyl)phenyl)sulfamoyl)-4-methoxybenzoic acid]
IC50: < 500 nM

COc1ccc(C(=O)O)cc1S(=O)(=O)Nc1cc(S(C)(=O)=O)ccc1N1CCC[C@H](O)C1 [Example 246, (S)-3-(N-(2-(3-hydroxypiperidin-1-yl)-5-(methylsulfonyl)phenyl)sulfamoyl)-4-methoxybenzoic acid]
IC50: < 500 nM

CCc1ccc(C(=O)O)cc1S(=O)(=O)Nc1cc(S(C)(=O)=O)ccc1N1CCC[C@H](O)C1 [Example 247, (S)-4-ethyl-3-(N-(2-(3-hydroxypiperidin-1-yl)-5-(methylsulfonyl)phenyl)sulfamoyl)benzoic acid]
IC50: < 500 nM

COc1ccc(C(=O)O)cc1S(=O)(=O)Nc1cc(-n2cnnn2)ccc1N1CCC[C@@H](O)C1 [Example 248, I-3-(N-(2-(3-hydroxypiperidin-1-yl)-5-(tetrazol-1-yl)phenyl)sulfamoyl)-4-methoxybenzoic acid]
IC50: < 500 nM

CCc1ccc(C(=O)O)cc1S(=O)(=O)Nc1cc(C(F)(F)F)ccc1N1CCC[C@@H](O)C1 [Example 249, I-4-ethyl-3-(N-(2-(3-hydroxypiperidin-1-yl)-5-(trifluoromethyl)phenyl)sulfamoyl)benzoic acid]
IC50: < 500 nM

CCc1ccc(C(=O)O)cc1S(=O)(=O)Nc1cc(C(F)(F)F)ccc1N1CCC[C@H](O)C1 [Example 250, (S)-4-ethyl-3-(N-(2-(3-hydroxypiperidin-1-yl)-5-(trifluoromethyl)phenyl)sulfamoyl)benzoic acid]
IC50: < 500 nM

CCc1ccc(C(=O)O)cc1S(=O)(=O)Nc1cc(S(C)(=O)=O)ccc1N1CCC[C@@H](O)C1 [Example 251, I-4-ethyl-3-(N-(2-(3-hydroxypiperidin-1-yl)-5-(methylsulfonyl)phenyl)sulfamoyl)benzoic acid]
IC50: < 500 nM

CCc1ccc(C(=O)O)cc1S(=O)(=O)Nc1cc(-n2cnnn2)ccc1N1CCC[C@@H](O)C1 [Example 252, I-4-ethyl-3-(N-(2-(3-hydroxypiperidin-1-yl)-5-(tetrazol-1-yl)phenyl)sulfamoyl)benzoic acid]
IC50: < 500 nM

COc1ccc(C(=O)O)cc1S(=O)(=O)Nc1cc(-n2cnnn2)ccc1N1CCC[C@H](O)C1 [Example 253, (S)-3-(N-(2-(3-hydroxypiperidin-1-yl)-5-(tetrazol-1-yl)phenyl)sulfamoyl)-4-methoxybenzoic acid]
IC50: < 500 nM

CCc1ccc(C(=O)O)cc1S(=O)(=O)Nc1cc(-n2cnnn2)ccc1N1CCC[C@H](O)C1 [Example 254, (S)-4-ethyl-3-(N-(2-(3-hydroxypiperidin-1-yl)-5-(tetrazol-1-yl)phenyl)sulfamoyl)benzoic acid]
IC50: < 500 nM

CCc1ccc(C(=O)O)cc1S(=O)(=O)Nc1cc(S(C)(=O)=O)ccc1N1CC(C)(O)C1 [Example 255, 4-ethyl-3-(N-(2-(3-hydroxy-3-methylazetidin-1-yl)-5-(methylsulfonyl)phenyl)sulfamoyl)benzoic acid]
IC50: < 5000 nM

Reference: patent US12485169B2, “Compounds” (GREY WOLF THERAPEUTICS LIMITED, priority 2018, dated 2025)
